# Values quoted from earlier work, collected in patent US20170325481A1, “METHOD OF FORMING ENCAPSULATED COMPOSITIONS WITH ENHANCED SOLUBILITY AND STABILITY” (KEMIN INDUSTRIES, INC., priority 2011, published 2017).
# Settings: multiple nanosize emulsions, 4 weeks of storage at 50° C.
smiles,measurement,value
CC1=C(/C=C/C(C)=C/C=C/C(C)=C/C=C/C=C(C)/C=C/C=C(C)/C=C/C2=C(C)CCCC2(C)C)C(C)(C)CCC1 [β-carotene],β-carotene left after storage,32.3%
